pIC50: −log10 of the molar value. Read-outs that look alike come from different tables or passages of the source.
How the values were obtained:
B16 mouse melanoma cells = assay: cell viability in the B16 cell-based assay (Viability, B16 IC50)
Method in brief: (§1)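 Viability readouts were run alongside the GM3 cell-surface assay in the same B16 and C32 cultures. A figure above 10 indicates no cell death.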

[1] = test system: GM3 expression on the cell surface, B16 mouse melanoma cells; assay: cell based phenotypic assay, cell surface GM3 by antibody mediated immunofluorescence, B16 (GM3 B16 IC50); settings: 50% inhibition of GM3 expression on the cell surface
Method in brief: (§2)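 Both lines undergo the phenotypic GM3 assay, and viability is recorded from that same cell-based run.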

[2] = test system: GM3 expression on the cell surface, C32 human melanoma cells; assay: cell based phenotypic assay, cell surface GM3 by antibody mediated immunofluorescence, C32 (GM3 C32 IC50); settings: 50% inhibition of GM3 expression on the cell surface
Method in brief: as §2

[3] = biological target: T1, glucosylceramide synthase (Homo sapiens, UniProt Q16739); assay: microsomal assay measuring conversion of ceramide to glucosylceramide by HPLC (GCS IC50); assay type: biochemical; settings: concentration causing 50% inhibition of glucosylceramide synthase activity
T1 construct: Microsomes were isolated from A375 human melanoma cells; endogenous in cells; host or cells: A375 human melanoma cells (microsomal fraction, 100,000 g pellet)
T1 sequence (Q16739 1-394): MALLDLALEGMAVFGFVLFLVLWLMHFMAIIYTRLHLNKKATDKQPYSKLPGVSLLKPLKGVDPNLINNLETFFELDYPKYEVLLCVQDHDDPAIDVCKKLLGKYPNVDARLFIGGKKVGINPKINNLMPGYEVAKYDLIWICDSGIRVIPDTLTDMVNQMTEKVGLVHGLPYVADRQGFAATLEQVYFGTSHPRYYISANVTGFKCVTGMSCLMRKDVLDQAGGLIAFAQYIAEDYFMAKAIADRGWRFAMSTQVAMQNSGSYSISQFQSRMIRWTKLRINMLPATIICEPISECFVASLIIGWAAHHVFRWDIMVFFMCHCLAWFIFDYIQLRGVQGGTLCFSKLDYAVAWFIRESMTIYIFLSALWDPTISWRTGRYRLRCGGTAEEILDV
Method in brief: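 IC50 is the compound concentration halving glucosylceramide synthase activity. Activity was measured in microsomes, with HPLC quantifying glucosylceramide formed from ceramide.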

C32 human melanoma cells = assay: cell viability in the C32 cell-based assay (Viability, C32 IC50); settings: concentration causing 50% cell death, values greater than 10 represent a lack of cell death
Method in brief: as §1

[4] = Mus musculus, B16, read-out: Viability, B16 IC50
[5] = Mus musculus, read-out: GM3 B16 IC50, B16 mouse melanoma cells
[6] = Homo sapiens, read-out: GM3 C32 IC50, C32 human melanoma cells
[7] = Homo sapiens, C32, read-out: Viability, C32 IC50, C32 cells
[8] = Mus musculus, B16, B16 cells, concentration causing 50% cell death, values greater than 10 represent a lack of cell death, read-out: Viability, B16 IC50
[9] = Mus musculus, B16 mouse melanoma cells, read-out: GM3 B16 IC50
[10] = Homo sapiens, C32 human melanoma cells, read-out: GM3 C32 IC50
[11] = Homo sapiens, C32, C32 cells, read-out: Viability, C32 IC50
[12] = read-out: Viability, B16 IC50, B16 cells, concentration causing 50% cell death, values greater than 10 represent a lack of cell death
[13] = read-out: Viability, C32 IC50, C32 cells

COCCCOc1cnc(-c2cccc(C(C)(C)NC(=O)OC3CN4CCC3CC4)c2)nc1 (stereo not shown) [Example 323, Quinuclidin-3-yl (2-(3-(5-(3-methoxypropoxy)pyrimidin-2-yl)phenyl)propan-2-yl)carbamate]
pIC50 (B16 mouse melanoma cells; [4]): ≤ 5.00
pIC50 [1, 5]: 6.29
pIC50 [2, 6]: 7.31
pIC50 [3]: 5.94
pIC50 (C32 human melanoma cells; [7]): 6.00

CC(C)(NC(=O)NC1(C)CN2CCC1CC2)c1ccc(-c2ccc(C(=O)N3CCOCC3)cc2)cc1 (stereo not shown) [Example 267, 1-(3-Methylquinuclidin-3-yl)-3-(2-(4′-(morpholine-4-carbonyl)biphenyl-4-yl)propan-2-yl)urea]
pIC50 (B16 mouse melanoma cells; [8]): 6.25
pIC50 [1, 9]: 5.56
pIC50 [2, 10]: 6.92
pIC50 [3]: 6.44
pIC50 (C32 human melanoma cells; [11]): ≤ 5.00

CC1(NC(=O)C2(F)CCN(c3nccc(OC4CCOCC4)n3)CC2)CCN2CCC1CC2 (stereo not shown) [Example 123, 4-Fluoro-N-(4-methyl-1-azabicyclo[3.2.2]nonan-4-yl)-1-(4-((tetrahydro-2H-pyran-4-yl)oxy)pyrimidin-2-yl)piperidine-4-carboxamide]
pIC50 (B16 mouse melanoma cells; [8]): ≤ 5.00
pIC50 [1, 9]: 6.65
pIC50 [2, 10]: 8.65
pIC50 [3]: 7.37
pIC50 (C32 human melanoma cells; [11]): 6.00

O=C(OC1CN2CCC1CC2)N1CCN(c2ccc(-c3ccccc3)cc2)CC1 (stereo not shown) [Example 6, Quinuclidin-3-yl 4-([1,1′-biphenyl]-4-yl)piperazine-1-carboxylate]
pIC50 (B16 mouse melanoma cells; [12]): 5.28
pIC50 [1, 5]: 5.45
pIC50 [2, 6]: 6.00
pIC50 [3]: 5.25
pIC50 (C32 human melanoma cells; [13]): 5.39

CC(C)(NC(=O)OC1CN2CCC1CC2)c1cccc(Oc2cccc(C(=O)N3CCOCC3)c2)c1 (stereo not shown) [Example 279, Quinuclidin-3-yl 2-(3-(3-(morpholine-4-carbonyl)phenoxy)phenyl)propan-2-ylcarbamate]
pIC50 (B16 mouse melanoma cells; [4]): ≤ 5.00
pIC50 [1, 5]: 5.41
pIC50 [2, 6]: 6.66
pIC50 [3]: 5.36
pIC50 (C32 human melanoma cells; [7]): 5.50

CC(C)(NC(=O)N1CCN2CCC1CC2)c1ccc(-c2ccc(C(=O)N3CCOCC3)cc2)cc1 [Example 269, N-(2-(4′-(Morpholine-4-carbonyl)biphenyl-4-yl)propan-2-yl)-1,4-diazabicyclo[3.2.2]nonane-4-carboxamide]
pIC50 (B16 mouse melanoma cells; [8]): ≤ 5.00
pIC50 [1, 9]: 5.67
pIC50 [2, 10]: 6.29
pIC50 [3]: 4.64
pIC50 (C32 human melanoma cells; [11]): ≤ 5.00

COCc1ccc(-c2ccnc(N3CCN(C(=O)NC4(C)CCN5CCC4CC5)CC3C(F)F)n2)cc1 (stereo not shown) [Example 150, 3-(Difluoromethyl)-4-(4-(4-(methoxymethyl)phenyl)pyrimidin-2-yl)-N-(4-methyl-1-azabicyclo[3.2.2]nonan-4-yl)piperazine-1-carboxamide]
pIC50 (B16 mouse melanoma cells; [8]): 5.26
pIC50 [1, 9]: 6.71
pIC50 [2, 10]: 8.97
pIC50 [3]: 7.64
pIC50 (C32 human melanoma cells; [11]): 6.00

CN(C)C(=O)c1ccc(Oc2ccc(C(C)(C)NC(=O)OC3CN4CCC3CC4)cc2)cc1 (stereo not shown) [Example 287, Quinuclidin-3-yl 2-(4-(4-(dimethylcarbamoyl)phenoxy)phenyl)propan-2-ylcarbamate]
pIC50 (B16 mouse melanoma cells; [12]): ≤ 5.00
pIC50 ([1]; read-out: GM3 B16 IC50, B16 mouse melanoma cells): 5.66
pIC50 ([2]; read-out: GM3 C32 IC50, C32 human melanoma cells): 6.64
pIC50 [3]: 5.88
pIC50 (C32 human melanoma cells; [13]): 5.50

CC1(NC(=O)C2CCN(c3ccc(-c4ccccc4)cc3)CC2)CN2CCC1CC2 (stereo not shown) [Example 37, 1-([1,1′-Biphenyl]-4-yl)-N-(3-methylquinuclidin-3-yl)piperidine-4-carboxamide]
pIC50 (B16 mouse melanoma cells; [8]): 5.15
pIC50 [1, 9]: 5.74
pIC50 [2, 10]: 6.88
pIC50 [3]: 5.81
pIC50 (C32 human melanoma cells; [11]): 5.16

CN(C)C(=O)c1ccc(-c2ccc(C(C)(C)NC(=O)NC3(C)CCN4CCC3CC4)cc2)cc1 (stereo not shown) [Example 261, N,N-Dimethyl-4′-(2-(3-(4-methyl-1-azabicyclo[3.2.2]nonan-4-yl)ureido)propan-2-yl)biphenyl-4-carboxamide]
pIC50 (B16 mouse melanoma cells; [8]): ≤ 5.00
pIC50 [1, 9]: 6.45
pIC50 [2, 10]: 7.85
pIC50 [3]: 7.22
pIC50 (C32 human melanoma cells; [11]): 5.50

COCCOCc1ccc(-c2ccc(C(C)(C)NC(=O)NC3(C)CCN4CCC3CC4)cc2)cc1 (stereo not shown) [Example 201, 1-(2-(4′-((2-Methoxyethoxy)methyl)-[1,1′-biphenyl]-4-yl)propan-2-yl)-3-(4-methyl-1-azabicyclo[3.2.2]nonan-4-yl)urea]
pIC50 (B16 mouse melanoma cells; [8]): ≤ 5.00
pIC50 [1, 9]: 7.64
pIC50 [2, 10]: 9.12
pIC50 [3]: 7.86
pIC50 (C32 human melanoma cells; [11]): 6.50

CC(C)(C)CCS(=O)(=O)c1ccc(C#CC(C)(C)NC(=O)OC2CN3CCC2CC3)cc1 (stereo not shown) [Example 334, Quinuclidin-3-yl (4-(4-((3,3-dimethylbutyl)sulfonyl)phenyl)-2-methylbut-3-yn-2-yl)carbamate]
pIC50 (B16 mouse melanoma cells; [4]): 5.48
pIC50 [1, 5]: 6.50
pIC50 [2, 6]: 7.93
pIC50 [3]: 7.10
pIC50 (C32 human melanoma cells; [7]): ≤ 5.00

COCCCOc1ccc(-c2ccc(C(C)(C)NC(=O)N3CCN4CCC3CC4)cc2)cc1 [Example 174, N-(2-(4′-(3-Methoxypropoxy)-[1,1′-biphenyl]-4-yl)propan-2-yl)-1,4-diazabicyclo[3.2.2]nonane-4-carboxamide]
pIC50 (B16 mouse melanoma cells; [8]): ≤ 5.00
pIC50 [1, 9]: 6.41
pIC50 [2, 10]: 7.65
pIC50 [3]: 6.87
pIC50 (C32 human melanoma cells; [11]): 6.00

COCCCOc1ccc(C#CC(C)(C)NC(=O)OC2CN3CCC2CC3)cc1 (stereo not shown) [Example 331, Quinuclidin-3-yl (4-(4-(3-methoxypropoxy)phenyl)-2-methylbut-3-yn-2-yl)carbamate]
pIC50 (B16 mouse melanoma cells; [12]): ≤ 5.00
pIC50 [1, 5]: 5.75
pIC50 [2, 6]: 6.93
pIC50 [3]: 5.88
pIC50 (C32 human melanoma cells; [13]): ≤ 5.00

COCCOc1ccc(-c2ccc(C3(NC(=O)NC4(C)CN5CCC4CC5)CC3)cc2)cc1 (stereo not shown) [Example 163, 1-(1-(4′-(2-Methoxyethoxy)-[1,1′-biphenyl]-4-yl)cyclopropyl)-3-(3-methylquinuclidin-3-yl)urea]
pIC50 (B16 mouse melanoma cells; [8]): 6.00
pIC50 [1, 9]: 8.18
pIC50 [2, 10]: 9.27
pIC50 [3]: 8.07
pIC50 (C32 human melanoma cells; [11]): 6.76

4-(4-(4-Fluorophenyl)pyrimidin-2-yl)-3-methyl-N-(4-methyl-1-azabicyclo[3.2.2]nonan-4-yl)piperazine-1-carboxamide [Example 146]
pIC50 (B16 mouse melanoma cells; B16 cells, concentration causing 50% cell death, values greater than 10 represent a lack of cell death, read-out: Viability, B16 IC50): 5.20
pIC50 ([1]; B16 mouse melanoma cells, read-out: GM3 B16 IC50): 6.96
pIC50 ([2]; C32 human melanoma cells, read-out: GM3 C32 IC50): 9.25
pIC50 [3]: 7.78
pIC50 (C32 human melanoma cells; C32 cells, read-out: Viability, C32 IC50): 6.00

CC(C)(NC(=O)OC1CN2CCC1CC2)c1ccc(C(=O)N2CCN(c3ccccc3)CC2)cc1 (stereo not shown) [Example 304, Quinuclidin-3-yl 2-(4-(4-phenylpiperazine-1-carbonyl)phenyl)propan-2-ylcarbamate]
pIC50 (B16 mouse melanoma cells; [4]): ≤ 5.00
pIC50 [1, 5]: 6.45
pIC50 [2, 6]: 7.02
pIC50 [3]: 5.76
pIC50 (C32 human melanoma cells; [7]): ≤ 5.00

CC1(NC(=O)C2CCN(c3nccc(-c4cc(F)cc(F)c4)n3)CC2)CCN2CCC1CC2 (stereo not shown) [Example 65, 1-(4-(3,5-Difluorophenyl)pyrimidin-2-yl)-N-(4-methyl-1-azabicyclo[3.2.2]nonan-4-yl)piperidine-4-carboxamide]
pIC50 (B16 mouse melanoma cells; [8]): 5.38
pIC50 [1, 9]: 7.25
pIC50 [2, 10]: 10.03
pIC50 [3]: 8.88
pIC50 (C32 human melanoma cells; [11]): 6.67

CCCC1(NC(=O)NC(C)(C)c2ccc(-c3ccc(S(=O)(=O)CC4(COC)CC4)cc3)cc2)CN2CCC1CC2 (stereo not shown) [Example 251, 1-(2-(4′-(((1-(Methoxymethyl)cyclopropyl)methyl)sulfonyl)-[1,1′-biphenyl]-4-yl)propan-2-yl)-3-(3-propylquinuclidin-3-yl)urea]
pIC50 (B16 mouse melanoma cells; [8]): ≤ 5.00
pIC50 [1, 9]: 7.32
pIC50 [2, 10]: 8.30
pIC50 [3]: 7.68
pIC50 (C32 human melanoma cells; [11]): 6.00

CC1(NC(=O)N2CCC(c3ccc(-c4ccccc4)cc3)CC2)CCN2CCC1CC2 (stereo not shown) [Example 53, 4-([1,1′-Biphenyl]-4-yl)-N-(4-methyl-1-azabicyclo[3.2.2]nonan-4-yl)piperidine-1-carboxamide]
pIC50 (B16 mouse melanoma cells; [8]): 5.17
pIC50 [1, 9]: 5.91
pIC50 [2, 10]: 6.76
pIC50 [3]: 5.66
pIC50 (C32 human melanoma cells; [11]): 5.20
